The subject of one assay is NCI. Briefly: Growth inhibition of human NCI DTP 60 cells. It counts as functional.
The next assay deals with NCI-H460. The experiment in a line: Antiproliferative activity against human NCI-H460 cells after 48 hrs. The settings on record: NCI-H460, 48 h; for CC50: read-out: LC50 (the source's name). The class given is functional.
The test system of the next assay is 786-0. Briefly: Antiproliferative activity against human 786-0 cells after 48 hrs. It counts as functional. The settings on record: for CC50: read-out: LC50 (the source's name).
The next assay deals with CAKI-1. Briefly: Antiproliferative activity against human CAKI1 cells after 48 hrs. The class given is functional. The settings on record: CAKI-1, 48 h; for CC50: read-out: LC50 (the source's name).
The test system of another assay is IGROV-1. The experiment in a line: Antiproliferative activity against human IGROV1 cells after 48 hrs. The class given is functional. The settings on record: IGROV-1, 48 h.
The next assay relates to NCI-H522. Briefly: Antiproliferative activity against human NCI-H522 cells after 48 hrs. The class given is functional. The settings on record: NCI-H522, 48 h.
The subject of a further assay is UO-31. Briefly: Antiproliferative activity against human UO31 cells after 48 hrs. It counts as functional.
Assay [1] concerns Plasmodium falciparum. The experiment in a line: Antimalarial activity against Plasmodium falciparum W2. The class given is functional, organism-based.
Assay [2] concerns Plasmodium falciparum. The experiment in a line: Antimalarial activity against Plasmodium falciparum D6. The class given is functional, organism-based.
Assay [3] can be described thus: Antiproliferative activity against human […] cells after 48 hrs. The class given is functional.
For assay [4], the system named is Plasmodium falciparum. The experiment in a line: Antimalarial activity against Plasmodium falciparum TM91C235. The class given is functional, organism-based.
The next assay concerns MOLT-4. The experiment in a line: Antiproliferative activity against human MOLT4 cells after 48 hrs. It counts as functional. The settings on record: MOLT-4, 48 h.
A further assay deals with LOX IMVI. Briefly: Antiproliferative activity against human LOX IMVI cells after 48 hrs. The class given is functional.
The next assay concerns DU-145. The experiment in a line: Antiproliferative activity against human DU145 cells after 48 hrs. It counts as functional. The settings on record: DU-145, 48 h.
The next assay concerns HOP-92. Briefly: Antiproliferative activity against human HOP92 cells after 48 hrs. It counts as functional.
The next assay has as its system ACHN. The experiment in a line: Antiproliferative activity against human ACHN cells after 48 hrs. It counts as functional.
A further assay concerns HL-60. Briefly: Antiproliferative activity against human HL60 cells after 48 hrs. It counts as functional.
The subject of a further assay is CCRF-CEM. Briefly: Antiproliferative activity against human CCRF-CEM cells after 48 hrs. It counts as functional.
The subject of a further assay is PC-3. Briefly: Antiproliferative activity against human PC3 cells after 48 hrs. It counts as functional. The settings on record: PC-3, 48 h.
Where [5] appears, read: read-out: LC50 (the source's name).

pIC50: −log10 of the molar value. Bounds are passed on as bounds.

Regarding `CC(=O)O[C@H]1C[C@H]2[C@@H]([C@H](OC(C)=O)C[C@@H]3CC4(CC[C@@]32C)OOC2(CCCCC2)OO4)[C@@H]2CC[C@H]([C@H](C)CCC(N)=O)[C@@]12C`, the GI50 (in general, the concentration giving 50% growth inhibition) is less than 10 nM with NCI (Homo sapiens, NCI); 550 nM in the assay on NCI-H460; 783 nM in the assay on 786-0 (Homo sapiens, 786-0, 48 h); 200 nM in the assay with CAKI-1; 32 nM in the assay on IGROV-1; 230 nM with NCI-H522. For the same molecule, the GI50 with UO-31 (Homo sapiens, UO-31, 48 h) is less than 10 nM. Besides, the concentration for total growth inhibition (TGI) (as a rule, the concentration giving total growth inhibition) was found to be 2070 nM in the assay on NCI-H460; 2090 nM with 786-0 (Homo sapiens, 786-0, 48 h); 1120 nM in the assay on CAKI-1; 120 nM in the assay with IGROV-1; 770 nM in the assay with NCI-H522; 14 nM with UO-31 (Homo sapiens, UO-31, 48 h). In addition, the CC50 stood at 5280 nM in the assay on NCI-H460; 4570 nM in the assay with 786-0 (Homo sapiens, 786-0, 48 h); 3590 nM with CAKI-1; 3020 nM in the assay on NCI-H522 (setting [5]). Further, the LC50 (concentration killing 50% of cells) with IGROV-1 stood at 430 nM. For the same molecule, in the assay with UO-31 (Homo sapiens, UO-31, 48 h), the LC50 – broadly, the concentration that kills 50% of the test population – amounted to 40 nM.

With `CCCNC(=O)CC[C@@H](C)[C@H]1CC[C@H]2[C@@H]3CC[C@@H]4CC5(CC[C@]4(C)[C@H]3C[C@H](OC(C)=O)[C@]12C)OOC1(CCCCC1)OO5`, in the assay with Plasmodium falciparum [1] (Plasmodium falciparum, W2), the pIC50 (commonly −log10 of the IC50, conventionally taken in molar units) was 7.39 and the concentration for an effect of 90% (IC90) (as a rule, the concentration needed for an effect of 90%) is 111 nM. In the assay with Plasmodium falciparum [2] (Plasmodium falciparum, D6), the pIC50 was 7.13 and the IC90 worked out at 115 nM. Also, the 50% growth inhibitory concentration (GI50) in the assay with NCI (Homo sapiens, NCI) was 110 nM. Further, in [3], the GI50 stood at 110 nM and the total growth inhibition concentration (TGI) was determined as 650 nM. In [3] (setting [5]), the CC50 is 6820 nM.

Regarding `CC(=O)O[C@H]1C[C@H]2[C@@H](CC[C@@H]3CC4(CC[C@@]32C)OOC2(CCCCC2)OO4)[C@@H]2CC[C@H]([C@H](C)CCC(=O)NCCN(C)C)[C@@]12C`, the pIC50 in the assay with Plasmodium falciparum [1] (Plasmodium falciparum, W2) was 6.98; in the assay on Plasmodium falciparum [2] (Plasmodium falciparum, D6), 6.66; in the assay with Plasmodium falciparum [4] (Plasmodium falciparum, TM91C235), 6.66. Further, the concentration for an effect of 90% (IC90) with Plasmodium falciparum [1] (Plasmodium falciparum, W2) came out at 276 nM. The GI50 was less than 10 nM in the assay on NCI (Homo sapiens, NCI); less than 10 nM with MOLT-4; 536 nM with NCI-H460; 159 nM in the assay on 786-0 (Homo sapiens, 786-0, 48 h). Further, the TGI was greater than 100000 nM in the assay with MOLT-4; 1900 nM with NCI-H460; 298 nM in the assay on 786-0 (Homo sapiens, 786-0, 48 h). Moreover, the CC50 with NCI-H460 stood at 4700 nM; in the assay with 786-0 (Homo sapiens, 786-0, 48 h), 559 nM.

As to `CCCNC(=O)CC[C@@H](C)[C@H]1CC[C@H]2[C@@H]3CC[C@@H]4CC5(CC[C@]4(C)[C@H]3C[C@H](OC(C)=O)[C@]12C)OOC1(CCC(C)CC1)OO5` (stereo in doubt; 15), the pIC50 with Plasmodium falciparum [1] was 7.47; in the assay with Plasmodium falciparum [2], 7.53; with Plasmodium falciparum [4] it was 7.47. Also, the results for the IC90 with Plasmodium falciparum [1], in the assay on Plasmodium falciparum [2] and with Plasmodium falciparum [4] were 53.7 nM, 39.3 nM and 50.7 nM, respectively. In addition, the concentration for 50% growth inhibition (GI50) in the assay with NCI (Homo sapiens, NCI) was determined as 62 nM; with LOX IMVI (Homo sapiens, LOX IMVI, 48 h) it was 116 nM; with DU-145, 663 nM; with CAKI-1, 62.2 nM; in the assay on HOP-92 (Homo sapiens, HOP-92, 48 h), 134 nM; in the assay with UO-31 (Homo sapiens, UO-31, 48 h), 122 nM. In addition, the LC50 (concentration killing 50% of cells) is 1680 nM in the assay on LOX IMVI (Homo sapiens, LOX IMVI, 48 h); 3910 nM in the assay with DU-145; 4530 nM in the assay on HOP-92 (Homo sapiens, HOP-92, 48 h). Further, the concentration for total growth inhibition (TGI) in the assay with LOX IMVI (Homo sapiens, LOX IMVI, 48 h) amounted to 391 nM; in the assay with DU-145, 1610 nM; in the assay with CAKI-1, 163 nM; with HOP-92 (Homo sapiens, HOP-92, 48 h), 873 nM; with UO-31 (Homo sapiens, UO-31, 48 h) it was 329 nM. For the same molecule, the CC50 in the assay with CAKI-1 was found to be 429 nM.

On to `CC(=O)O[C@H]1C[C@H]2[C@@H](CC[C@@H]3CC4(CC[C@@]32C)OOC2(CCC(C)CC2)OO4)[C@@H]2CC[C@H]([C@H](C)CCC(=O)NCCN(C)C)[C@@]12C` (stereo in doubt; 17), for which the pIC50 in the assay on Plasmodium falciparum [1] was 6.87; with Plasmodium falciparum [2] it was 6.98; in the assay on Plasmodium falciparum [4] it was 6.87. Moreover, the IC90 in the assay with Plasmodium falciparum [1] was found to be 155 nM; with Plasmodium falciparum [2], 148 nM; in the assay on Plasmodium falciparum [4] it was 153 nM. The GI50 with NCI (Homo sapiens, NCI) is less than 5 nM; in the assay with 786-0 it was 81.3 nM; in the assay with CAKI-1, 602 nM; in the assay with ACHN, 439 nM. For the same molecule, the TGI worked out at 149 nM in the assay with 786-0, 5.18 nM in the assay with LOX IMVI, 1400 nM in the assay on CAKI-1 and 1050 nM in the assay on ACHN. Also, the LC50 (concentration killing 50% of cells) amounted to 56.4 nM in the assay with LOX IMVI and 2300 nM in the assay with ACHN. The CC50 in the assay on CAKI-1 came to 3250 nM.

As for `CC1CCC2(CC1)OOC1(CC[C@@]3(C)[C@H](CC[C@@H]4[C@@H]3C[C@H](O)[C@]3(C)[C@@H]([C@H](C)CCC(=O)NCCN(C)C)CC[C@@H]43)C1)OO2` (stereo in doubt; 17a), the GI50 is 130 nM in the assay on NCI; 335 nM in the assay with 786-0; 264 nM in the assay with HL-60; 180 nM in the assay on LOX IMVI; 641 nM with DU-145; 171 nM with HOP-92. In addition, the 50% growth inhibitory concentration (GI50) in the assay on CCRF-CEM amounted to 186 nM; in the assay on IGROV-1 it was 160 nM; in the assay on PC-3, 367 nM; with UO-31, 165 nM. Moreover, the TGI with 786-0 was determined as 1050 nM; with HL-60, 477 nM; in the assay on LOX IMVI, 352 nM; with DU-145, 1910 nM; in the assay on HOP-92 it was 368 nM; in the assay with CCRF-CEM it was 384 nM. Also, the total growth inhibition concentration (TGI) in the assay with IGROV-1 came to 338 nM; in the assay on PC-3 it was 1620 nM; in the assay on UO-31, 318 nM. Besides, the CC50 in the assay on 786-0 came to 3650 nM; with HL-60 (setting [5]), 863 nM; with PC-3 (setting [5]), 4450 nM. Moreover, the LC50 (concentration killing 50% of cells) with LOX IMVI was found to be 689 nM; with DU-145, 4490 nM; with HOP-92, 794 nM; in the assay with CCRF-CEM, 792 nM; with IGROV-1, 712 nM. For the same molecule, the median lethal concentration (LC50) in the assay with UO-31 was 613 nM.

Source of the values: ChEMBL document CHEMBL1148828, “Deoxycholic acid-derived tetraoxane antimalarials and antiproliferatives(1)” (J Med Chem, 2007).
